Results: patent US20140194373A1, “COSMETIC USE OF […] A DERIVATIVE THEREOF IN THE PREVENTION AND/OR TREATMENT OF BODY ODOUR” (NESTEC S.A., priority 2011, published 2014)

System: dermicidin
Test: Differential proteomic analysis (iTRAQ) of stratum corneum varnish strips after oral supplementation, randomized double-blind study
Assay type: in vivo, women
Conditions: 500 mg of hesperidin per day, samples at D1 and D168, left leg, compared with placebo maltodextrin, n=33 per group
Experimental: The test product consists of hesperidin and is administered orally.
The active agent was tested alone in a randomized double-blind study.
66 women were divided into two groups, one of these groups testing maltodextrin (n=33 group A), the other testing hesperidin (n=33 group B).
The supplementation was 500 mg of hesperidin per day.
The evolution of various cutaneous markers was studied by proteomics on samples of isolated stratum corneum as indicated hereinbelow.
A sample is taken at times D1 and D168 with varnish strips in order to remove only part of the stratum corneum, i.e. at most the first 4 to 5 layers of stratum corneum.
To do this, a 41 μm Nylon filter gauze of Millipore NY41 type is applied to a predefined area of the left leg. […]
These skin samples (varnish strips of stratum corneum) were then analysed by proteomics by means of an “isobaric marking” technique to evaluate the expression of the protein(s) under study. […]
The marked peptides are detected by mass spectrometry with the intrinsic mass of the peptide +145 Da, originating from the reagent. In the peptide fragmentation step, the contribution of each of the reagents is assessed by the release of ions (fragments) having different specific masses. […]

## COc1ccc([C@@H]2CC(=O)c3c(O)cc(O[C@@H]4O[C@H](CO[C@@H]5O[C@@H](C)[C@H](O)[C@@H](O)[C@H]5O)[C@@H](O)[C@H](O)[C@H]4O)cc3O2)cc1O [hesperidin, (S)-7-[[6-0-(6-deoxy-α-L-mannopyranosyl)-β-D-glucopyranosyl]oxy]-2,3-dihydro-5-hydroxy-2-(3-hydroxy-4-methoxyphenyl)-4H-1-benzopyran-4-one]
  expression of dermicidin in stratum corneum: significantly stimulates the expression of dermicidin
